Test results taken from patent US11758905B2, “Amphotericin B and β-1,3-glucanase loaded bi-functional nano-system with both targets, preparation method and application thereof” (QINGDAO AGRICULTURAL UNIVERSITY, priority 2021, dated 2023).

Tests used:
Assay type in all cases: cell-based
[1] = tested on: Candida albicans BF 1; assay: Minimum inhibitory concentration determination; conditions: clinical isolate BF 1; 24 h, 37° C.
Method: (§1) Fungus strain: Candida albicans DAY185; 3 clinical isolates of Candida albicans, obtained from Medical University of Vienna, named as Candida albicans BF 1, BF 2 and BF 3.
(§2) 100 μl of Candida albicans (1×10^6 CFU/mL) is added to a 96-pore plate containing different concentrations (2, 1, 0.5, 0.25, 0.125, 0.0625 or 0 μg/mL) of free AmpB and CSNP-AmpB-Gls. The micropore plate is rotated at a rotation speed of 150 rpm and incubated at 37° C. for 24 h. The minimum inhibitory concentration is defined as the minimum AmpB concentration at which visible growth cannot be detected.

[2] = tested on: Candida albicans BF 2; assay: Minimum inhibitory concentration determination; conditions: clinical isolate BF 2; 24 h, 37° C.
Method: as §1, §2

[3] = tested on: Candida albicans BF 3; assay: Minimum inhibitory concentration determination; conditions: clinical isolate BF 3; 24 h, 37° C.
Method: as §1, §2

[4] = tested on: Candida albicans DAY185; assay: Minimum inhibitory concentration determination; conditions: strain DAY 185; 24 h, 37° C.; minimum AmpB concentration without visible growth
Method: as §1, §2

[5] = tested on: Candida albicans biofilm on silica gel; assay: Influence on medical silica gel surface biofilm (CLSM viable/dead staining, SEM)
Method: The biofilm on a silica gel is treated by free AmpB and NPs by following the method described above. The biofilm structure is studied through a scanning electron microscope. The biofilm survivability is observed with CLSM, and viable/dead fungus staining kit is used for staining, […]

## C[C@@H]1[C@H](O)[C@@H](C)/C=C/C=C/C=C/C=C/C=C/C=C/C=C/[C@H](O[C@@H]2O[C@H](C)[C@@H](O)[C@H](N)[C@@H]2O)C[C@@H]2O[C@](O)(C[C@@H](O)C[C@@H](O)[C@H](O)CC[C@@H](O)C[C@@H](O)CC(=O)O[C@H]1C)C[C@H](O)[C@H]2C(=O)O [AmpB, amphotericin B]
[1]
  AmpB MIC: 2 µg/mL
[2]
  AmpB MIC: 2 µg/mL
[3]
  AmpB MIC: 4 µg/mL
[4]
  AmpB MIC: 1 µg/mL
[5]; silica gel, FIG. 6
  biofilm structure change by SEM: significantly reduces fungus colonization
[5]; viable/dead staining, FIG. 5
  cell viability of the biofilm on silica gel by CLSM: green (viable cells) is significantly reduced
